We go through 26 compounds from patent US11548868B2, “Heterocyclic compounds, compositions comprising heterocyclic compound, and methods of use thereof” (JS INNOPHARM (SHANGHAI) LTD, priority 2017, dated 2023).

Test [1] addresses T1, IDO1 in Hela cancer cells (Homo sapiens, UniProt P14902).
T1 construct: endogenous in cells; host or cells: Hela cancer cells stimulated with human IFN-γ
The test can be described thus: IDO1 Cellular Assay (kynurenine production in IFN-γ stimulated Hela cancer cells). Type of test: cell-based. The note with it: human IFN-γ 50 ng/mL, 48 hours incubation, kynurenine at 490 nm. The method in brief: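 HeLa cells stimulated with 50 ng/mL IFN-γ (final) and treated 48 h with compound (0–25 μM final, 0.25% DMSO). Supernatant kynurenine measured after TCA hydrolysis and p-dimethylaminobenzaldehyde reaction at 490 nm; inhibition vs DMSO control, IC50 by non-linear regression.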

For test [2], the target named is T2, TDO2 in A172 cancer cells (Homo sapiens, UniProt P48775).
T2 construct: endogenous in cells; host or cells: A172 cancer cells
As to the kind of experiment: TDO2 Cellular Assay (kynurenine production in A172 cancer cells). Type of test: cell-based. The following applies: L-Trp 1 mM, 24 hours incubation, kynurenine at 490 nm. The method in brief: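 Kynurenine output of A172 cells was read colorimetrically at 490 nm (Ehrlich reagent after TCA hydrolysis at 50 °C). Cells had 1 mM L-Trp plus compound at 0–25 μM in 0.25% DMSO for 24 h; IC50 values were fitted non-linearly from percent inhibition relative to vehicle.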

Structures are written as SMILES.

T2 sequence (P48775 whole entry): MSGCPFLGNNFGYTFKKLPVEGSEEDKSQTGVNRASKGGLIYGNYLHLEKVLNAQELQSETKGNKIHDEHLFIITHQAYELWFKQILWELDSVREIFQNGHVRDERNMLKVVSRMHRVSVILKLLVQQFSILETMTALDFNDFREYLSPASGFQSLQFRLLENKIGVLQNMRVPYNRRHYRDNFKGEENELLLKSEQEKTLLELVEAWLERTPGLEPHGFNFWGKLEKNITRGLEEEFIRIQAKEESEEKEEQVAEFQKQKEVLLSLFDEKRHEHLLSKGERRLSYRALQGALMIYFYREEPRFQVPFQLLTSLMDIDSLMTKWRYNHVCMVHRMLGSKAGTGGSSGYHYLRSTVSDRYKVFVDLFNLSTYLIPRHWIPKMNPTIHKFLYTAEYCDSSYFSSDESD
T1 sequence (P14902 whole entry): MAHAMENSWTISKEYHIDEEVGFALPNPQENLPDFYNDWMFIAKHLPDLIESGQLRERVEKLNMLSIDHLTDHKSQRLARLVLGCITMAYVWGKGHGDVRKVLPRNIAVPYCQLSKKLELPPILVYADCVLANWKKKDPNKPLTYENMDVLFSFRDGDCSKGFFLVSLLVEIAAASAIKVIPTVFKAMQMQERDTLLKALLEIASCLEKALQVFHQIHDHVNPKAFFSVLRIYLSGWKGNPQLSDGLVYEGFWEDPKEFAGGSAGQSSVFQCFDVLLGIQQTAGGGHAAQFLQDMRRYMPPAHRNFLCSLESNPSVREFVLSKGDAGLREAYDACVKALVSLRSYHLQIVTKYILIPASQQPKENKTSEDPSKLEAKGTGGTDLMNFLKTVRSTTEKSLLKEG

With `O=C(Nc1ccc(Cl)cc1)N[C@H]1[C@@H]2C[C@@](O)(c3cc(Cl)cc4[nH]ncc34)C[C@@H]21` [Example 121, 1-((1R,3r,5S,6r)-3-(6-chloro-1H-indazol-4-yl)-3-hydroxybicyclo[3.1.0]hexan-6-yl)-3-(4-chlorophenyl)urea], the IC50 in test [1] and in test [2] was at most 500 nM each time.
As for `O=C(Nc1cccc(Cl)c1)N[C@H]1[C@@H]2C[C@@](O)(c3cc(Cl)cc4[nH]ncc34)C[C@@H]21` [Example 122, 1-((1R,3r,5S,6r)-3-(6-chloro-1H-indazol-4-yl)-3-hydroxybicyclo[3.1.0]hexan-6-yl)-3-(3-chlorophenyl)urea], the IC50 in test [1] and in test [2] was 1000 to 5000 nM throughout.
With `O=S(=O)(NC1CCCCC1)N[C@H]1[C@@H]2C[C@@](O)(c3cc(Cl)cc4[nH]ncc34)C[C@@H]21` [Example 123, N′-cyclohexyl-N-((1R,3r,5S,6r)-3-(6-chloro-1H-indazol-4-yl)-3-hydroxybicyclo[3.1.0]hexan-6-yl)sulfuric diamide], the IC50 in test [1] is 1000 to 5000 nM; in test [2], at most 500 nM.
The like results for `O=C(N[C@H]1[C@@H]2C[C@@](O)(c3cc(Cl)cc4[nH]ncc34)C[C@@H]21)c1cccc(Cl)c1` [Example 124, 3-chloro-N-((1R,3r,5S,6r)-3-(6-chloro-1H-indazol-4-yl)-3-hydroxybicyclo[3.1.0]hexan-6-yl)benzamide] were, in that order, at most 500 nM and at most 500 nM.
In the case of `CCNC(=O)N[C@H]1[C@@H]2C[C@@](O)(c3cc(Cl)cc4[nH]ncc34)C[C@@H]21` [Example 125, 1-((1R,3r,5S,6r)-3-(6-chloro-1H-indazol-4-yl)-3-hydroxybicyclo[3.1.0]hexan-6-yl)-3-ethylurea], the IC50 in test [1] is over 5000 nM; in test [2], at most 500 nM.
In the case of `O=C(NC1CCCCC1)N[C@H]1[C@@H]2C[C@@](O)(c3cc(Cl)cc4[nH]ncc34)C[C@@H]21` [Example 126, 1-((1R,3r,5S,6r)-3-(6-chloro-1H-indazol-4-yl)-3-hydroxybicyclo[3.1.0]hexan-6-yl)-3-cyclohexylurea], the concentration for half-maximal inhibition (IC50) in test [1] is over 5000 nM; in test [2], at most 500 nM.
Regarding `COc1ccccc1-c1c[nH]cc1C(=O)N[C@H]1[C@@H]2C[C@@](O)(c3cc(Cl)cc4[nH]ncc34)C[C@@H]21` [Example 127, N-((1R,3r,5S,6r)-3-(6-chloro-1H-indazol-4-yl)-3-hydroxybicyclo[3.1.0]hexan-6-yl)-4-(2-methoxyphenyl)-1H-pyrrole-3-carboxamide], the IC50 in test [1] is over 5000 nM; in test [2] it was at most 500 nM.
The like results for `CCNS(=O)(=O)N[C@H]1[C@@H]2C[C@@](O)(c3cc(Cl)cc4[nH]ncc34)C[C@@H]21` [Example 128, N′-ethyl-N-((1R,3r,5S,6r)-3-(6-chloro-1H-indazol-4-yl)-3-hydroxybicyclo[3.1.0]hexan-6-yl)sulfuric diamide] were, in that order, 500 to 1000 nM and at most 500 nM.
On to `O=C(N[C@H]1[C@@H]2C[C@@](O)(c3cc(Cl)cc4cn[nH]c34)C[C@@H]21)c1ccccc1` [Example 129, N-((1R,3r,5S,6r)-3-(5-chloro-1H-indazol-7-yl)-3-hydroxybicyclo[3.1.0]hexan-6-yl)benzamide], for which the IC50 in test [1] and in test [2] was 1000 to 5000 nM each time.
As for `O=C(N[C@H]1[C@@H]2C[C@@](O)(c3cc(Cl)cc4cn[nH]c34)C[C@@H]21)c1ccncc1` [Example 130, N-((1R,3r,5S,6r)-3-(5-chloro-1H-indazol-7-yl)-3-hydroxybicyclo[3.1.0]hexan-6-yl)isonicotinamide], the IC50 in test [1] was 500 to 1000 nM; in test [2] it was 1000 to 5000 nM.
Regarding `O=S(=O)(N[C@H]1[C@@H]2C[C@@](O)(c3cc(Cl)cc4cn[nH]c34)C[C@@H]21)c1ccccc1` [Example 131, N-((1R,3r,5S,6r)-3-(5-chloro-1H-indazol-7-yl)-3-hydroxybicyclo[3.1.0]hexan-6-yl)benzenesulfonamide], the IC50 in test [1] is over 5000 nM; in test [2], 1000 to 5000 nM.
The like results for `O=C(Nc1ccccc1)N[C@H]1[C@@H]2C[C@@](O)(c3cc(Cl)cc4cn[nH]c34)C[C@@H]21` [Example 132, 1-((1R,3r,5S,6r)-3-(5-chloro-1H-indazol-7-yl)-3-hydroxybicyclo[3.1.0]hexan-6-yl)-3-phenylurea] were, in that order, 1000 to 5000 nM and 500 to 1000 nM.
In the case of `CNC(=O)N[C@H]1[C@@H]2C[C@@](O)(c3cc(Cl)cc4cn[nH]c34)C[C@@H]21` [Example 133, 1-((1R,3r,5S,6r)-3-(5-chloro-1H-indazol-7-yl)-3-hydroxybicyclo[3.1.0]hexan-6-yl)-3-methylurea], the IC50 in test [1] is over 5000 nM; in test [2], 1000 to 5000 nM.
As for `O=C(c1nc2cc(Cl)ccc2[nH]1)N1C[C@@H]2C[C@@](O)(c3cc(Cl)cc4[nH]ncc34)C[C@@H]2C1` [Example 134, (5-chloro-1H-benzo[d]imidazol-2-yl)((3aR,5r,6aS)-5-(6-chloro-1H-indazol-4-yl)-5-hydroxyhexahydrocyclopenta[c]pyrrol-2(1H)-yl)methanone], the IC50 in test [1] is 1000 to 5000 nM; in test [2] it was at most 500 nM.
On to `NC(=O)N[C@H]1[C@@H]2C[C@@](O)(c3cc(Cl)cc4[nH]ncc34)C[C@@H]21` [Example 135, 1-((1R,3r,5S,6r)-3-(6-chloro-1H-indazol-4-yl)-3-hydroxybicyclo[3.1.0]hexan-6-yl)urea], for which the IC50 in test [1] was over 5000 nM; in test [2], at most 500 nM.
On to `O=C(N[C@H]1[C@@H]2C[C@@](O)(c3cc(Cl)cc4[nH]ncc34)C[C@@H]21)c1nc2cc(Cl)ccc2[nH]1` [Example 136, 5-chloro-N-((1R,3r,5S,6r)-3-(6-chloro-1H-indazol-4-yl)-3-hydroxybicyclo[3.1.0]hexan-6-yl)-1H-benzo[d]imidazole-2-carboxamide], for which the IC50 is 1000 to 5000 nM in test [1] and at most 500 nM in test [2].
The like results for `N#CCC(=O)N[C@H]1[C@@H]2C[C@@](O)(c3cc(Cl)cc4[nH]ncc34)C[C@@H]21` [Example 137, N-((1R,3r,5S,6r)-3-(6-chloro-1H-indazol-4-yl)-3-hydroxybicyclo[3.1.0]hexan-6-yl)-2-cyanoacetamide] were, in that order, 1000 to 5000 nM and at most 500 nM.
The like results for `O=C(CC(F)(F)F)N[C@H]1[C@@H]2C[C@@](O)(c3cc(Cl)cc4[nH]ncc34)C[C@@H]21` [Example 138, N-((1R,3r,5S,6r)-3-(6-chloro-1H-indazol-4-yl)-3-hydroxybicyclo[3.1.0]hexan-6-yl)-3,3,3-trifluoropropanamide] were, in that order, over 5000 nM and at most 500 nM.
Consider `O=S(=O)(CC(F)(F)F)N[C@H]1[C@@H]2C[C@@](O)(c3cc(Cl)cc4[nH]ncc34)C[C@@H]21` [Example 139, N-((1R,3r,5S,6r)-3-(6-chloro-1H-indazol-4-yl)-3-hydroxybicyclo[3.1.0]hexan-6-yl)-2,2,2-trifluoroethanesulfonamide], for which the IC50 is 500 to 1000 nM in test [1] and at most 500 nM in test [2].
The like results for `NS(=O)(=O)N[C@H]1[C@@H]2C[C@@](O)(c3cc(Cl)cc4[nH]ncc34)C[C@@H]21` [Example 140, N-((1R,3r,5S,6r)-3-(6-chloro-1H-indazol-4-yl)-3-hydroxybicyclo[3.1.0]hexan-6-yl)sulfuric diamide] were, in that order, at most 500 nM and at most 500 nM.
For `CS(=O)(=O)Nc1cccc(C(=O)N[C@H]2[C@@H]3C[C@@](O)(c4cc(Cl)cc5[nH]ncc45)C[C@@H]32)c1` [Example 141, N-((1R,3r,5S,6r)-3-(6-chloro-1H-indazol-4-yl)-3-hydroxybicyclo[3.1.0]hexan-6-yl)-3-(methylsulfonamido)benzamide], the IC50 is over 5000 nM in test [1] and 500 to 1000 nM in test [2].
For `O=C(N[C@H]1[C@@H]2C[C@@](O)(c3cc(Cl)cc4[nH]ncc34)C[C@@H]21)c1cccc(C(F)(F)F)c1` [Example 142, N-((1R,3r,5S,6r)-3-(6-chloro-1H-indazol-4-yl)-3-hydroxybicyclo[3.1.0]hexan-6-yl)-3-(trifluoromethyl)benzamide], the IC50 in test [1] and in test [2] was at most 500 nM throughout.
For the compound `O=C(N[C@H]1[C@@H]2C[C@@](O)(c3cc(Cl)cc4[nH]ncc34)C[C@@H]21)c1cccc(F)c1` [Example 143, N-((1R,3r,5S,6r)-3-(6-chloro-1H-indazol-4-yl)-3-hydroxybicyclo[3.1.0]hexan-6-yl)-3-fluorobenzamide], the IC50 in test [1] and in test [2] was at most 500 nM in each case.
Take `N#Cc1cccc(C(=O)N[C@H]2[C@@H]3C[C@@](O)(c4cc(Cl)cc5[nH]ncc45)C[C@@H]32)c1` [Example 144, N-((1R,3r,5S,6r)-3-(6-chloro-1H-indazol-4-yl)-3-hydroxybicyclo[3.1.0]hexan-6-yl)-3-cyanobenzamide]: the IC50 in test [1] and in test [2] was at most 500 nM throughout.
On to `O=C(N[C@H]1[C@@H]2C[C@@](O)(c3cc(Cl)cc4[nH]ncc34)C[C@@H]21)c1cccc(OC(F)(F)F)c1` [Example 145, N-((1R,3r,5S,6r)-3-(6-chloro-1H-indazol-4-yl)-3-hydroxybicyclo[3.1.0]hexan-6-yl)-3-(trifluoromethoxy)benzamide], for which the IC50 in test [1] and in test [2] was at most 500 nM in each case.
Consider `O=C(N[C@H]1[C@@H]2C[C@@](O)(c3cc(Cl)cc4[nH]ncc34)C[C@@H]21)c1cccc(Br)c1` [Example 146, 3-bromo-N-((1R,3r,5S,6r)-3-(6-chloro-1H-indazol-4-yl)-3-hydroxybicyclo[3.1.0]hexan-6-yl)benzamide], for which the IC50 in test [1] and in test [2] was at most 500 nM each time.
